Measurements as given in ChEMBL document CHEMBL4619777, “A New Class of Dengue and West Nile Virus Protease Inhibitors with Submicromolar Activity in Reporter Gene DENV-2 Protease and Viral Replication Assays” (J Med Chem, 2020).

Legend:
[1] = target: Genome polyprotein (dengue virus type 2) (UniProt P29990); test: Inhibition of Dengue virus serotype 2 NS2B-NS3 protease expressed in Escherichia coli BL21 lambda (DE3) cells at 50 uM using Abz-Nle-Lys-Arg-Arg-Ser-3-(NO2)Tyr as substrate preincubated for 15 mins followed by substrate addition and measured for 15 mins by FRET assay relative to control
[2] = target: T1, Genome polyprotein (dengue virus type 2, UniProt P29990); test: Inhibition of Dengue virus serotype 2 NS2B-NS3 protease expressed in Escherichia coli BL21 lambda (DE3) cells using Abz-Nle-Lys-Arg-Arg-Ser-3-(NO2)Tyr as substrate preincubated for 15 mins followed by substrate addition and measured for 15 mins by FRET assay
[3] = target: Genome polyprotein (West Nile virus) (UniProt P06935); test: Inhibition of West Nile virus NS2B-NS3 protease expressed in Escherichia coli BL21 lambda (DE3) cells at 50 uM using Abz-Gly-Leu-Lys-Arg-Gly-Gly-3-(NO2)Tyr as substrate preincubated for 15 mins followed by substrate addition measured for 15 mins by fluorimetric analysis relative to control
[4] = target: Genome polyprotein (West Nile virus, UniProt P06935); test: Inhibition of West Nile virus NS2B-NS3 protease expressed in Escherichia coli BL21 lambda (DE3) cells using Abz-Gly-Leu-Lys-Arg-Gly-Gly-3-(NO2)Tyr as substrate preincubated for 15 mins followed by substrate addition measured for 15 mins by fluorimetric analysis
[5] = target: Genome polyprotein (dengue virus type 2) (UniProt P29990); test: Inhibition of Dengue virus serotype 2 NS2B-NS3 protease transfected in human HeLa cells at 12.5 uM measured after 24 hrs by Renilla-luciferase reporter gene assay relative to control; assay type: cell-based
[6] = target: T1, Genome polyprotein; test: Inhibition of Dengue virus serotype 2 NS2B-NS3 protease transfected in human HeLa cells measured after 24 hrs by Renilla-luciferase reporter gene assay; assay type: cell-based
[7] = Cytotoxicity against human HeLa cells assessed as reduction in cell viability measured after 24 hrs by celltiter-blue assay; assay type: cell-based
[8] = target: Trypsin (Homo sapiens, UniProt P07477+P07478+P35030); test: Inhibition of trypsin (unknown origin) at 50 uM using Boc-Val-Pro-Arg-AMC as substrate preincubated for 15 mins followed by substrate addition and measured for 15 mins by fluorimetric assay relative to control; assay type: protein assay; details: 0.25 h, 50 µM
[9] = target: Prothrombin (Homo sapiens, UniProt P00734); test: Inhibition of thrombin (unknown origin) at 25 uM using Boc-Val-Pro-Arg-AMC as substrate preincubated for 15 mins followed by substrate addition and measured for 15 mins by fluorimetric assay; details: 0.25 h
[10] = system: Huh-7; test: Cytotoxicity against human HuH7 cells assessed as reduction in cell viability at 12 uM measured after 48 hrs by celltiter-blue assay; assay type: cell-based; details: huh-7, 48 h
[11] = system: dengue virus type 2; test: Antiviral activity against DENV2 infected in human HuH7 cells assessed as reduction in virus titer at 12.5 uM measured after 48 hrs relative to control; assay type: functional; details: Huh-7, 48 h
[12] = Permeability of the compound assessed as drug level in donor plate at 200 uM measured after 5 hrs at pH 7.4 by PAMPA; assay type: ADME; details: pH 7.4, 5 h
[13] = Permeability of the compound assessed as drug level in acceptor plate at 200 uM measured after 5 hrs at pH 7.4 by PAMPA; assay type: ADME; details: pH 7.4, 5 h
[14] = Permeability of the compound at 200 uM measured after 5 hrs at pH 7.4 by PAMPA; assay type: ADME; details: read-out: permeability
[15] = Permeability of the compound assessed as mass retention at 200 uM measured after 5 hrs at pH 7.4 by PAMPA; assay type: ADME; details: pH 7.4, 5 h

Sequence of Genome polyprotein (West Nile virus, UniProt P06935) (P06935 1371-1501 limits assumed): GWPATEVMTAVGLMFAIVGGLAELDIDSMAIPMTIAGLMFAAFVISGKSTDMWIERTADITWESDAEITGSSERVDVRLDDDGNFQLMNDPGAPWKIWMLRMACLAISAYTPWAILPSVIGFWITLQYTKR
Sequence of Genome polyprotein (West Nile virus, UniProt P06935) (P06935 1502-2120 limits assumed): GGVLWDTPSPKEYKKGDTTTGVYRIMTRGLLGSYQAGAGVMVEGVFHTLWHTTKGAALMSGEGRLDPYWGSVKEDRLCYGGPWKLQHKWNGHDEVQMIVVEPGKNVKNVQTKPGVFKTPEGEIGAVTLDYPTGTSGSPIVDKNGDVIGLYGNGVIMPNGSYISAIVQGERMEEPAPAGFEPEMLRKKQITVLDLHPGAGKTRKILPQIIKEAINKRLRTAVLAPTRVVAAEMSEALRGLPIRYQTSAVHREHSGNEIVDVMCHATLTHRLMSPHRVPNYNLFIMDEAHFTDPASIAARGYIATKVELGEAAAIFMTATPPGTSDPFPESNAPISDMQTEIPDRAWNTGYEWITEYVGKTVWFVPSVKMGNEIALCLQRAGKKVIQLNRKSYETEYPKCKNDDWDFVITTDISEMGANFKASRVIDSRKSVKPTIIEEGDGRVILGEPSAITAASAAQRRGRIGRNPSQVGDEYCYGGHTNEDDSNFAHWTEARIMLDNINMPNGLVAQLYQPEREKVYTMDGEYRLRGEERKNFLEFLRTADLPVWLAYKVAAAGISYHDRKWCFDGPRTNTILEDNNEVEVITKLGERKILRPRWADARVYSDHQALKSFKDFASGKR
Sequence of Genome polyprotein (West Nile virus) (P06935 whole entry): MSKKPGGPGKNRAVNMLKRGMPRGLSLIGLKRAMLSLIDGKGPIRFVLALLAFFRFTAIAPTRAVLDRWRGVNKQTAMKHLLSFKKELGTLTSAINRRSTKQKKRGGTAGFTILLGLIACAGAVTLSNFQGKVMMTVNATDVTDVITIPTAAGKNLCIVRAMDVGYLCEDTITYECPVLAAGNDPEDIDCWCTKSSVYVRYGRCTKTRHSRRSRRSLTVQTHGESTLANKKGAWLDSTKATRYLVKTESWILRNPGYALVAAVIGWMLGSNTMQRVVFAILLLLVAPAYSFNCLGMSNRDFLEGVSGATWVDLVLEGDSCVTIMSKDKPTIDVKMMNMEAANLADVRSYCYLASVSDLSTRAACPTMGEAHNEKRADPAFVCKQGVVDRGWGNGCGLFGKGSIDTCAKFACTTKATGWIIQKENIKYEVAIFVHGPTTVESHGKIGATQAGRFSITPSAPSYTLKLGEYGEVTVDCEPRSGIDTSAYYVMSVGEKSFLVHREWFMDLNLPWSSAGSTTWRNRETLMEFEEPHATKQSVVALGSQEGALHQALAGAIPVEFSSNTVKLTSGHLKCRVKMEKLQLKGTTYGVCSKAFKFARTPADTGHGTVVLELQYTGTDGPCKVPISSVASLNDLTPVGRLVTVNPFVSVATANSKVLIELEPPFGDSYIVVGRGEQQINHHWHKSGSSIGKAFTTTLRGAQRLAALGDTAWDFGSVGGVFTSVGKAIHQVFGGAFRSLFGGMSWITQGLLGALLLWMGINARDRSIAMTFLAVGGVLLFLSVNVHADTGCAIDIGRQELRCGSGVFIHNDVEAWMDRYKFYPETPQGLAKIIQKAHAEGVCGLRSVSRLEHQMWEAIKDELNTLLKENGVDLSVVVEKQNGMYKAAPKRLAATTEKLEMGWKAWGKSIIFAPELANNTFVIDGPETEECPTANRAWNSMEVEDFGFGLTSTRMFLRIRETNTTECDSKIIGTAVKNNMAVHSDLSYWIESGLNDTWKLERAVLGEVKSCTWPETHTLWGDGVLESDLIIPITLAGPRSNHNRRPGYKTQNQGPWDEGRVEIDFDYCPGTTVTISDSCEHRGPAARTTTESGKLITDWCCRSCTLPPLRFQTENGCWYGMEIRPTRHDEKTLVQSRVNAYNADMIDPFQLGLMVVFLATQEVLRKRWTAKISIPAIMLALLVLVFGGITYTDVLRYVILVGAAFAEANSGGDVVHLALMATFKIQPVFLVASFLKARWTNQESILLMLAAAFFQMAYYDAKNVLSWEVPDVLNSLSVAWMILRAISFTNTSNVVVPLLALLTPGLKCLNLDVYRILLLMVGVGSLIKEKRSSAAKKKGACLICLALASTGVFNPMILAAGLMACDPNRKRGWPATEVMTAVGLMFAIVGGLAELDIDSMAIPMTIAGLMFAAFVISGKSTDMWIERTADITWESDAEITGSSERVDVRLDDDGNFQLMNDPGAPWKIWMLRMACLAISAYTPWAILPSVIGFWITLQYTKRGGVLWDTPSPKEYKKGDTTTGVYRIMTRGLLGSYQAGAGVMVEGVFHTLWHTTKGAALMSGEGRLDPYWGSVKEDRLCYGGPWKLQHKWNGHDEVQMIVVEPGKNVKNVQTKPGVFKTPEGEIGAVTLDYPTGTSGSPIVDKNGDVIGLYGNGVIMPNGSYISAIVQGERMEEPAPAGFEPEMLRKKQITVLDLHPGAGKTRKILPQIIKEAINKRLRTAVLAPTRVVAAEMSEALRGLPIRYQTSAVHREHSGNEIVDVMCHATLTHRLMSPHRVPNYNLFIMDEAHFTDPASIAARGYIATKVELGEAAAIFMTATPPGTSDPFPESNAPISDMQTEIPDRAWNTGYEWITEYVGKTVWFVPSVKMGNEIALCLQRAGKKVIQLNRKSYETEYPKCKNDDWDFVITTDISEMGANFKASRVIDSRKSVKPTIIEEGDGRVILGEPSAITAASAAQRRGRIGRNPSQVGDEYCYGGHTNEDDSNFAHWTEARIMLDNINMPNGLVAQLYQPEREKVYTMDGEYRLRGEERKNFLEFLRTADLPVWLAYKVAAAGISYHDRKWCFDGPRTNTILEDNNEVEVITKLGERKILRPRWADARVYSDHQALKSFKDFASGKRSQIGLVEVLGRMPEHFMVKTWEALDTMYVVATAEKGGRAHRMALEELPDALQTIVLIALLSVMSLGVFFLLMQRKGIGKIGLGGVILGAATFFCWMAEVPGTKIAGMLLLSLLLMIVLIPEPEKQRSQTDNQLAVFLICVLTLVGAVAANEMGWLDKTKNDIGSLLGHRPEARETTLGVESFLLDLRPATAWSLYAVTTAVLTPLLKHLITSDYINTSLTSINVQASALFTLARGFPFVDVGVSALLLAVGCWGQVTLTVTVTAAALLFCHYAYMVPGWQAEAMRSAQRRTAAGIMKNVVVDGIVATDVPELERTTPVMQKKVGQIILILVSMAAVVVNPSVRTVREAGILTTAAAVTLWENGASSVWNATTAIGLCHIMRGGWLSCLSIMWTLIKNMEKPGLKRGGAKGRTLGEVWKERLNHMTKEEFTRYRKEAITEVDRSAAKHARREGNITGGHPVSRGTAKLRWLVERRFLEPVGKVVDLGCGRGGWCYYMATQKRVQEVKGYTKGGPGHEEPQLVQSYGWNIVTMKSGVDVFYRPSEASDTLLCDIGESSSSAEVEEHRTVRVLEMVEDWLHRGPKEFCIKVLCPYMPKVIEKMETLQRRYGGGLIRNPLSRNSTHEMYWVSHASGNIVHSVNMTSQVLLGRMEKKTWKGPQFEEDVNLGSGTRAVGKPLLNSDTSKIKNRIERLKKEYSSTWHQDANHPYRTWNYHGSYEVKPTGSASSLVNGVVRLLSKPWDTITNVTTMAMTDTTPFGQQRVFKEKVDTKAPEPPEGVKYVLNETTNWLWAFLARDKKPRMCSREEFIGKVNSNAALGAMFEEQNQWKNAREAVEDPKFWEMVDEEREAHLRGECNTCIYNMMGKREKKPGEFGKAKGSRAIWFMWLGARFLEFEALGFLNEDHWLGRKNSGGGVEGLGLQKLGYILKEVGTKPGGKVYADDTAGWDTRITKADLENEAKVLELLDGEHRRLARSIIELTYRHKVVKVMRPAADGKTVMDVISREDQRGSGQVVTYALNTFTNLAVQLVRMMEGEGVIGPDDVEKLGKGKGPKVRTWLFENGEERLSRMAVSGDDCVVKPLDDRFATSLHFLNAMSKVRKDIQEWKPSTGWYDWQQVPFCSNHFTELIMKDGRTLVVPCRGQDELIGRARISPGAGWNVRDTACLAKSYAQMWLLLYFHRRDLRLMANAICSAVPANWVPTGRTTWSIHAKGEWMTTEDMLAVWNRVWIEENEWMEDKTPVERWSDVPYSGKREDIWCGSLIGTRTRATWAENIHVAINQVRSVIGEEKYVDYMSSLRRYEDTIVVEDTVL

Structure (SMILES) | inhibition [1] [%] | IC50 [2] [µM] | inhibition [3] [%] | IC50 [4] [µM] | inhibition [5] [%] | EC50 [6] [µM] | CC50 at 24 h [7] [µM] | inhibition (INH) [8] | inhibition (INH) [9] | Activity [10] | inhibition at 12.5 µM [11] [%] | Drug uptake ([12]; BLD = below limit of detection) | Drug uptake [13] [µM] | Drug uptake [12] [µM] | Papp at 5 h, 200 µM [14] [×10⁻⁶ cm/s] | R% [15] [%]
CCCCCC(=O)N[C@H](C(=O)NCc1ccc(CNC(=N)N)cc1)c1ccc(OCc2ccccc2)cc1.O=C(O)C(F)(F)F | 104 | 14 | 98.6 | 37 | 66.3 | 6.3 | > 50 | Not Active | Not Active | Non-Toxic | 79.5 | – | – | – | – | –
CCCCCC(=O)N[C@H](C(=O)Nc1ccc2[nH]ncc2c1)c1ccc(OCc2ccccc2)cc1 | 22.4 | – | 26 | – | 65.4 | 6.9 | > 50 | Not Active | Not Active | – | – | – | – | – | – | –
COc1cccc(COc2ccc(C(=O)N[C@H](C(=O)NCc3ccc(NC(=N)N)cc3)c3ccc(OCc4ccccc4)cc3)cc2)c1.O=C(O)C(F)(F)F | 98.4 | 4.7 | 102 | 7.4 | 67.6 | 2.9 | > 12.5 | Not Active | Not Active | Non-Toxic | 21.9 | Bld | – | – | – | –
CCCCCC(=O)N[C@H](C(=O)NCc1ccc(CN(C)C)cc1)c1ccc(OCc2ccccc2)cc1 | < 10 | – | < 10 | – | 65.7 | 6.7 | > 12.5 | Not Active | Not Active | – | – | – | – | – | – | –
N=C(N)Nc1ccc(CNC(=O)[C@@H](NC(=O)c2ccc(-c3ccc(Cl)cc3)cc2)c2ccc(OCc3ccccc3)cc2)cc1.O=C(O)C(F)(F)F | 98.7 | 2 | 99.9 | 3.7 | 56.6 | 7.1 | > 50 | Not Active | Not Active | Non-Toxic | 79.9 | – | – | – | – | –
CCCCC(=O)N[C@H](C(=O)NCc1ccc(NC(=N)N)cc1)c1ccc(OCc2ccccc2)cc1.O=C(O)C(F)(F)F | 22 | – | 11.2 | – | 69.4 | 2.8 | > 50 | Not Active | Not Active | – | – | – | – | – | – | –
N=C(N)Nc1ccc(CNC(=O)[C@@H](NC(=O)c2ccc(OCc3ccccc3)cc2)c2ccc(OCc3ccccc3)cc2)cc1.O=C(O)C(F)(F)F | 106 | 4.4 | 98.7 | 7.1 | 69.8 | 2.1 | > 12.5 | Not Active | Not Active | Non-Toxic | 27.4 | Bld | – | – | – | –
CCCCCC(=O)N[C@H](C(=O)NCCCCCCN)c1ccc(OCc2ccccc2)cc1 | 18.1 | – | < 10 | – | 45.8 | 13 | > 50 | Not Active | Not Active | – | – | – | – | – | – | –
N=C(N)Nc1ccc(CNC(=O)[C@@H](NC(=O)c2cccc(Oc3ccccc3)c2)c2ccc(OCc3ccccc3)cc2)cc1.O=C(O)C(F)(F)F | 101 | 4.9 | 99.8 | 6.1 | 67.5 | 7.3 | > 25 | Not Active | Not Active | – | – | – | 1.1 | 168.9 | 0.2 | 15.2
O=C1NC(=O)C(c2ccccc2)(c2ccccc2)N1 [PHENYTOIN] | – | – | – | – | – | – | – | – | – | – | – | – | 23.4 | 149.6 | 6 | 17.4
N=C(N)Nc1ccc(CNC(=O)[C@@H](NC(=O)Cc2ccc(-c3ccccc3)cc2)c2ccc(OCc3ccccc3)cc2)cc1.O=C(O)C(F)(F)F | 101 | 1.3 | 99.3 | 1.8 | 16.3 | 20 | > 50 | Not Active | Not Active | – | – | Bld | – | – | – | –
CCCCCC(=O)N[C@H](C(=O)NCc1ccc(NC(=N)N)cc1)c1ccc(OCc2c(Cl)cccc2Cl)cc1.O=C(O)C(F)(F)F | 97.5 | 2.9 | 101 | 6.2 | 41.5 | – | > 50 | Not Active | Not Active | – | – | Bld | – | – | – | –
CCCCCC(=O)N[C@@H](C(=O)NCc1ccc(NC(=N)N)cc1)c1ccc(OCc2ccc(Cl)c(Cl)c2)cc1.O=C(O)C(F)(F)F | 97.3 | 5.7 | 101 | 8.3 | 51 | 16 | > 50 | Not Active | Not Active | – | – | – | – | – | – | –
CCCCCC(=O)N[C@H](C(=O)NCc1cccc(CN)c1)c1ccc(OCc2ccccc2)cc1 | 97.2 | 30 | 85.4 | 27 | 71 | 4.2 | > 12.5 | Not Active | Not Active | – | – | – | – | – | – | –
CCCCCCCCCC(=O)N[C@H](C(=O)NCc1ccc(NC(=N)N)cc1)c1ccc(OCc2ccccc2)cc1.O=C(O)C(F)(F)F | 99.8 | 2.3 | 102 | 5 | 65.8 | 2.3 | > 50 | Not Active | Not Active | – | – | Bld | – | – | – | –
CCCCCC(=O)N[C@H](C(=O)NCc1ccc(N)nc1)c1ccc(OCc2ccccc2)cc1.O=C(O)C(F)(F)F | 22.6 | – | 37.8 | – | 57 | 13 | > 50 | Not Active | Not Active | – | – | – | – | – | – | –
CCCCCC(=O)N[C@H](C(=O)NCc1ccc(NC(=N)N)nc1)c1ccc(OCc2ccccc2)cc1.O=C(O)C(F)(F)F | 93.9 | 19 | 96.8 | 23 | 67.7 | 5.9 | > 50 | Not Active | Not Active | Non-Toxic | 31.5 | – | – | – | – | –
CCCCCC(=O)N[C@H](C(=O)NCc1ccc(NC(=N)N)cc1)c1ccc(OCc2ccc(C(F)(F)F)cc2)cc1.O=C(O)C(F)(F)F | 96.3 | 7.4 | 100 | 12 | 66 | 3 | > 50 | Not Active | Not Active | Non-Toxic | 60.3 | – | – | – | – | –
N=C(N)NCc1ccc(CNC(=O)[C@H](NC(=O)c2ccc(Oc3ccccc3)cc2)c2ccc(OCc3ccc(Cl)c(Cl)c3)cc2)cc1.O=C(O)C(F)(F)F | 99.8 | 2.5 | 99.6 | 5.5 | 36 | – | > 50 | Not Active | Not Active | – | – | Bld | – | – | – | –
Cn1c(=O)c2c(ncn2C)n(C)c1=O [CAFFEINE] | – | – | – | – | – | – | – | – | – | – | – | – | 31.9 | 159.5 | 7.7 | 9.6
NC(=O)N1c2ccccc2C=Cc2ccccc21 [CARBAMAZEPINE] | – | – | – | – | – | – | – | – | – | – | – | – | 35.7 | 171.6 | 8.1 | 2.3
